# From patent publication US8835458B2 (Hanmi Science Co., Ltd, priority 2010, dated 2014)
# Read-outs that look alike come from different tables or passages of the source.
# Assays:
# [1] = tested on: MDA-MB-231 breast cancer cell lines; test: Evaluation of inhibition on cell growth (MTS); type: cell-based
# How it was run: (§1)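 Cells seeded at 3,000˜5,000 cells/100 μL, grown 24 h at 37° C (MDA-MB-231 under atmospheric conditions), then exposed to 10 μM˜0.1 nM compound. MDA-MB-231 cultured 120 h, read by MTS at 490 nm; fibroblasts cultured 72 h, TCA-fixed, SRB-stained, read at 540 nm. GI50 from growth relative to untreated and medium-only cells.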
# [2] = tested on: Balb/c3t3 fibroblasts; test: Toxicity to normal cells (SRB); type: cell-based, mouse; conditions: normal cell line, 72 hours, read-out: BalB/C (GI50)
# How it was run: as §1
# [3] = tested on: Hs27 fibroblasts; test: Toxicity to normal cells (SRB); type: cell-based, human; conditions: normal cell line, 72 hours
# How it was run: as §1
# [4] = tested on: caspase 3/7; test: Evaluation of caspase activity (Caspase-Glo 3/7 Assay Kit); type: cell-based; conditions: MDA-MB-231 cells, 12 hours, compared to untreated MDA-MB-231 cells; 0.5, 1, 5 μM tested
# Experimental: (§2) MDA-MB-231 breast cancer cells (ATCC #HTB-26) were plated in 96-well plates at a density of 1.0 1.5×10^4 cells/well. […] Then, media were removed and the cells were washed two times with PBS at 4° C. The cells were treated with a solution of the analysis samples and media (1:1) in an amount of 140 μL/well using Caspase-GloTM 9 Assay Kit (Cat#. […]; Promega, USA) and Caspase-GloTM 3/7 Assay Kit (Cat#. […]; Promega, USA). After the cells were incubated at 37° C. for 2 hours, luminescence was measured using InfiniteTM M1000 multi reader (Tecan). […] The values were represented as “***” for six fold or more, “**” for 4 fold to below 6 fold, and “*” for 1 fold to below 4 fold, as compared to that of untreated, normal MDA-MB-231 breast cancer cell lines.
# [5] = tested on: caspase 9; test: Evaluation of caspase activity (Caspase-Glo 9 Assay Kit); type: cell-based; conditions: MDA-MB-231 cells, 16 hours, compared to untreated MDA-MB-231 cells; 0.5, 1, 5 μM tested
# Experimental: as §2
# [6] = Toxicity to normal cells (SRB); type: cell-based, mouse; conditions: mouse, Balb/c3t3 fibroblasts (normal cell line), read-out: BalB/C (GI50)
# How it was run: as §1
# [7] = Toxicity to normal cells (SRB); type: cell-based, human; conditions: human, Hs27 fibroblasts (normal cell line)
# How it was run: as §1
# [8] = Homo sapiens, MDA-MB-231, 120 hours
"GI50 [1, 8] [nM]",Compound,GI50 ([1]; 120 hours) [nM],GI50 [2] [µM],GI50 [3] [µM],Caspase-3 [4],Caspase-9 [5],GI50 at 72 h [6] [µM],GI50 at 72 h [7] [µM]
,"(S)—N—((S)-1-((S)-2-(4-((4-bromo-2-fluorophenylamino)-6-methoxyquinazolinyl-7-oxy)methyl)piperidine)-1-carbonyl)-1-pyrrolidinyl)-3,3-dimethyloxobutan-2-yl)-2-(methylamino)propanamide hydrochloride [Example 44]",≤ 100,> 10,> 10,,,,
≤ 100,"CN[C@@H](C)C(=O)N[C@H](C(=O)N1CCC[C@H]1C(=O)Nc1cc2c(Nc3ccc(Oc4ccc(C)nc4)c(Cl)c3)ncnc2cc1OC)C(C)(C)C.Cl [Example 19, (S)—N-(4-(3-chloro-4-(6-methylpyridin-3-yloxy)phenylamino)-7-methoxyquinazolin-6-yl)-1-((S)-3,3-dimethyl-2-((S)-2-(methylamino)propanamido)butanoyl)pyrrolidine-2-carboxamide hydrochloride]",,,,*** (six fold or more),*** (six fold or more),> 10,> 10
≤ 100,"CN[C@@H](C)C(=O)N[C@H](C(=O)N1CCC[C@H]1C(=O)Nc1cc2c(NCc3ccccc3)ncnc2cc1OC)C(C)(C)C.Cl [Example 18, (S)—N-(4-benzylamino-7-methoxyquinazolin-6-yl)-1-((S)-3,3-dimethyl-2-((S)-2-(methylamino)propanamido)butanoyl)pyrrolidine-2-carboxamide hydrochloride]",,,,*** (six fold or more),*** (six fold or more),> 10,> 10
≤ 100,"CN[C@@H](C)C(=O)N[C@H](C(=O)N1CCC[C@H]1C(=O)Nc1cc2c(Nc3ccc(F)c(Cl)c3F)ncnc2cc1OC)C(C)(C)C.Cl [Example 1, (S)—N-(4-(3-chloro-2,4-difluorophenylamino)-7-methoxyquinazolin-6-yl)-1-((S)-3,3-dimethyl-2-((S)-2-(methylamino)propanamido)butanoyl)pyrrolidine-2-carboxamide hydrochloride]",,,,*** (six fold or more),*** (six fold or more),> 10,> 10
